Laboratory results from the supplement of paper PMC11061612.

Assays:
Test in all cases: Bliss excess, mean over the matrix (fraction); higher = more synergy
[1] = tested on: LoVo (Colorectal Carcinoma)
Procedure, shortened: (§1)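 Cell lines grown in DMEM/F12 or RPMI with 10% FBS were plated in 1536-well plates and held 24 hours at 37°C, 5% CO2 before 72 hours of exposure to two-drug dose matrices, with DMSO typically at 0.2%. CellTiter-Glo 2.0 luminescence gave viability, which was converted to inhibition. Vehicle wells were set to 0 and blank wells to 1. Combination Emax is the second-highest inhibition in the matrix, and Bliss excess is the observed combination effect minus the expected EA + EB − EA·EB, where EA and EB are the single-agent effects.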

[2] = tested on: SK-OV-3 (Ovarian Carcinoma)
Procedure, shortened: as §1

NCI-H2461 (Mesothelioma) = tested on: NCI-H2461 (Mesothelioma)
Procedure, shortened: as §1

[3] = tested on: CAPAN-1 (Pancreatic Carcinoma)
Procedure, shortened: as §1

[4] = tested on: EN (Endometrial Carcinoma)
Procedure, shortened: as §1

[5] = tested on: SUP-T1 (T-Lymphoblastic Leukemia)
Procedure, shortened: as §1

NCI-H28 (Mesothelioma) = tested on: NCI-H28 (Mesothelioma)
Procedure, shortened: as §1

[6] = tested on: CAL-54 (Kidney Carcinoma)
Procedure, shortened: as §1

[7] = tested on: Hs-633T (Other Solid Carcinomas)
Procedure, shortened: as §1

[8] = tested on: NCI-H69 (Small Cell Lung Carcinoma)
Procedure, shortened: as §1

[9] = tested on: SW1271 (Small Cell Lung Carcinoma)
Procedure, shortened: as §1

NB14 (Neuroblastoma) = tested on: NB14 (Neuroblastoma)
Procedure, shortened: as §1

[10] = tested on: K5 (Thyroid Gland Carcinoma)
Procedure, shortened: as §1

[11] = tested on: LU-139 (Small Cell Lung Carcinoma)
Procedure, shortened: as §1

[12] = tested on: RPMI-6666 (Non-Cancerous)
Procedure, shortened: as §1

[13] = tested on: SU-DHL-6 (B-Cell Non-Hodgkin's Lymphoma)
Procedure, shortened: as §1

[14] = tested on: HO-1-u-1 (Oral Cavity Carcinoma)
Procedure, shortened: as §1

[15] = tested on: HARA (Squamous Cell Lung Carcinoma)
Procedure, shortened: as §1

[16] = tested on: RT-112 (Bladder Carcinoma)
Procedure, shortened: as §1

[17] = tested on: OC-314 (Ovarian Carcinoma)
Procedure, shortened: as §1

Work on `CN(CCO)CC[C@H](CSc1ccccc1)Nc1ccc(S(=O)(=O)NC(=O)c2ccc(N3CCC([C@@H](O)c4ccccc4-c4ccc(Cl)cc4)CC3)cc2)cc1S(=O)(=O)C(F)(F)F` [AZD4320] + CC(=O)O[C@H]1C(=O)[C@@]2(C)[C@H]([C@H](OC(=O)c3ccccc3)[C@]3(O)C[C@H](OC(=O)[C@H](O)[C@@H](NC(=O)c4ccccc4)c4ccccc4)C(C)=C1C3(C)C)[C@]1(OC(C)=O)CO[C@@H]1C[C@@H]2O [Paclitaxel] (first compound max 1 µM, 7x7, partner max 3 µM) yielded a Bliss excess [1] of -0.0406, a Bliss excess [2] of 0.254 and a Bliss excess (NCI-H2461 (Mesothelioma)) of 0.0571. It also gave a Bliss excess [3] of 0.0823, a Bliss excess [4] of 0.068 and a Bliss excess [5] of -0.024. For the same compound, the Bliss excess (NCI-H28 (Mesothelioma)) was 0.0394, the Bliss excess [6] was -0.0202 and the Bliss excess [7] was 0.0124. For the same compound, the Bliss excess [8] was 0.0089, the Bliss excess [9] was 0.108 and the Bliss excess (NB14 (Neuroblastoma)) was 0.0064. It also gave a Bliss excess [10] of 0.0018, a Bliss excess [11] of 0.0242 and a Bliss excess [12] of 0.017. For the same compound, the Bliss excess [13] was 0.0083, the Bliss excess [14] was 0.254 and the Bliss excess [15] was 0.0253. For the same compound, the Bliss excess [16] was 0.0111 and the Bliss excess [17] was 0.0084.
`C[C@@H](Oc1cc(-c2cnn(C3CCNCC3)c2)cnc1N)c1c(Cl)ccc(F)c1Cl` [Crizotinib] + CC1=C(C(=CC=C1)Cl)NC(=O)C2=CN=C(S2)NC3=CC(=NC(=N3)C)N4CCN(CC4)CCO [Dasatinib] (first compound max 10 µM, 7x7, partner max 2 µM) showed a Bliss excess [1] of -0.121, a Bliss excess [2] of 0.0301 and a Bliss excess (NCI-H2461 (Mesothelioma)) of -0.0186. The Bliss excess [3] was -0.0481, the Bliss excess [4] was -0.0798 and the Bliss excess [5] was -0.009. For the same compound, the Bliss excess (NCI-H28 (Mesothelioma)) was 0.0073, the Bliss excess [6] was -0.033 and the Bliss excess [7] was 0.0646. The Bliss excess [8] was 0.0403, the Bliss excess [9] was 0.0464 and the Bliss excess (NB14 (Neuroblastoma)) was -0.0123. The Bliss excess [10] was -0.0107, the Bliss excess [11] was -0.0489 and the Bliss excess [12] was 0.0471. The Bliss excess [13] was -0.0146, the Bliss excess [14] was -0.0488 and the Bliss excess [15] was 0.0526. The Bliss excess [16] was 0.0179 and the Bliss excess [17] was 0.032.
For `C[C@@H]1COCCN1c1cc(C2([S@](C)(=N)=O)CC2)nc(-c2ccnc3[nH]ccc23)n1` [AZD6738] + C1CC(C1)(C(=O)[O-])C(=O)[O-].N.N.[Pt+2] [Carboplatin] (first compound max 10 µM, 7x7, partner max 10 µM), the Bliss excess [1] was -0.0743, the Bliss excess [2] was -0.0788 and the Bliss excess (NCI-H2461 (Mesothelioma)) was -0.05. For the same compound, the Bliss excess [3] was -0.0624, the Bliss excess [4] was -0.0335 and the Bliss excess [5] was -0.0298. It also gave a Bliss excess (NCI-H28 (Mesothelioma)) of -0.0606, a Bliss excess [6] of -0.0355 and a Bliss excess [7] of -0.0264. For the same compound, the Bliss excess [8] was -0.032, the Bliss excess [9] was -0.0547 and the Bliss excess (NB14 (Neuroblastoma)) was -0.0044. The Bliss excess [10] was -0.0728, the Bliss excess [11] was 0.0013 and the Bliss excess [12] was -0.0614. For the same compound, the Bliss excess [13] was -0.0174, the Bliss excess [14] was -0.074 and the Bliss excess [15] was -0.0226. For the same compound, the Bliss excess [16] was -0.0217 and the Bliss excess [17] was -0.03.
Compound `C[C@@H](Oc1cc(-c2cnn(C3CCNCC3)c2)cnc1N)c1c(Cl)ccc(F)c1Cl` [Crizotinib] + Cn1cnc2c(F)c(Nc3ccc(Br)cc3Cl)c(C(=O)NOCCO)cc21 [Selumetinib] (first compound max 10 µM, 7x7, partner max 10 µM) has a Bliss excess [1] of -0.0546, a Bliss excess [2] of -0.0479 and a Bliss excess (NCI-H2461 (Mesothelioma)) of -0.0376. It also gave a Bliss excess [3] of -0.046, a Bliss excess [4] of -0.0542 and a Bliss excess [5] of -0.0501. It also gave a Bliss excess (NCI-H28 (Mesothelioma)) of -0.0004, a Bliss excess [6] of -0.0135 and a Bliss excess [7] of 0.0381. For the same compound, the Bliss excess [8] was -0.0607, the Bliss excess [9] was 0.0503 and the Bliss excess (NB14 (Neuroblastoma)) was 0.0218. The Bliss excess [10] was -0.0788, the Bliss excess [11] was -0.0615 and the Bliss excess [12] was -0.0622. The Bliss excess [13] was -0.0205, the Bliss excess [14] was -0.0779 and the Bliss excess [15] was -0.0366. For the same compound, the Bliss excess [16] was -0.043 and the Bliss excess [17] was -0.0354.
With `C[C@@H]1COCCN1c1cc(C2([S@](C)(=N)=O)CC2)nc(-c2ccnc3[nH]ccc23)n1` [AZD6738] + Nc1ccn([C@@H]2O[C@H](CO)[C@@H](O)C2(F)F)c(=O)n1 [Gemcitabine] (first compound max 10 µM, 7x7, partner max 0.3 µM) the Bliss excess [1] was -0.0243, the Bliss excess [2] was 0.0331 and the Bliss excess (NCI-H2461 (Mesothelioma)) was -0.0436. For the same compound, the Bliss excess [3] was -0.0254, the Bliss excess [4] was 0.0613 and the Bliss excess [5] was 0.0041. The Bliss excess (NCI-H28 (Mesothelioma)) was 0.0086, the Bliss excess [6] was 0.0372 and the Bliss excess [7] was 0.0444. It also gave a Bliss excess [8] of 0.035, a Bliss excess [9] of 0.004 and a Bliss excess (NB14 (Neuroblastoma)) of 0.04. It also gave a Bliss excess [10] of 0.034, a Bliss excess [11] of 0.0146 and a Bliss excess [12] of -0.034. For the same compound, the Bliss excess [13] was 0.118, the Bliss excess [14] was 0.061 and the Bliss excess [15] was 0.0343. The Bliss excess [16] was 0.147 and the Bliss excess [17] was 0.115.
`O=C(c1cc(Cc2n[nH]c(=O)c3ccccc23)ccc1F)N1CCN(C(=O)C2CC2)CC1` [Olaparib] + Cc1c2c(nn1C)CSCc1cc(n(C)n1)CSc1cc(c3ccccc3c1)OCCCc1c(C(=O)O)n(C)c3c-2c(Cl)ccc13 [AZD5991] (first compound max 10 µM, 7x7, partner max 1 µM) gave a Bliss excess [1] of -0.0591, a Bliss excess [2] of -0.06 and a Bliss excess (NCI-H2461 (Mesothelioma)) of -0.0502. For the same compound, the Bliss excess [3] was -0.0392, the Bliss excess [4] was -0.016 and the Bliss excess [5] was -0.0286. It also gave a Bliss excess (NCI-H28 (Mesothelioma)) of -0.0349, a Bliss excess [6] of -0.0272 and a Bliss excess [7] of -0.0037. For the same compound, the Bliss excess [8] was 0.0008, the Bliss excess [9] was -0.0523 and the Bliss excess (NB14 (Neuroblastoma)) was -0.0183. For the same compound, the Bliss excess [10] was -0.0563, the Bliss excess [11] was -0.0263 and the Bliss excess [12] was 0.017. The Bliss excess [13] was 0.0065, the Bliss excess [14] was -0.0224 and the Bliss excess [15] was -0.0358. It also gave a Bliss excess [16] of 0.0048 and a Bliss excess [17] of -0.0142.
`C=CCn1c(=O)c2cnc(Nc3ccc(N4CCN(C)CC4)cc3)nc2n1-c1cccc(C(C)(C)O)n1` [AZD1775] + Nc1ccn([C@@H]2O[C@H](CO)[C@@H](O)C2(F)F)c(=O)n1 [Gemcitabine] (first compound max 1 µM, partner max 0.3 µM) was tested, and the Bliss excess [1] was -0.0005, the Bliss excess [2] was -0.0635 and the Bliss excess (NCI-H2461 (Mesothelioma)) was -0.0446. The Bliss excess [3] was -0.0588, the Bliss excess [4] was -0.0552 and the Bliss excess [5] was -0.047. It also gave a Bliss excess (NCI-H28 (Mesothelioma)) of -0.0576, a Bliss excess [6] of -0.0031 and a Bliss excess [7] of 0.0094. For the same compound, the Bliss excess [8] was -0.0754, the Bliss excess [9] was -0.0558 and the Bliss excess [10] was -0.0194. The Bliss excess [11] was -0.0304, the Bliss excess [12] was -0.0197 and the Bliss excess [13] was 0.0556. The Bliss excess [14] was -0.0446, the Bliss excess [15] was 0.0187 and the Bliss excess [16] was 0.148. It also gave a Bliss excess [17] of 0.0576.
